Measured values: patent US6399615B1, “Farnesyl protein transferase inhibitors” (Schering Corporation, priority 1997, dated 2002)

How the values were obtained:
[1] = target: farnesyl protein transferase (Homo sapiens, UniProt P49354+P49356); assay: FPT IC50 (inhibition of farnesyl protein transferase, in vitro enzyme assay); type: biochemical
Description: (§1) FPT IC50 (inhibition of farnesyl protein transferase, in vitro enzyme assay) and COS Cell IC50 (Cell-Based Assay) were determined following the assay procedures described in WO 95/10516, published Apr. 20, 1995. GGPT IC50 (inhibition of geranylgeranyl protein transferase, in vitro enzyme assay), Cell Mat Assay, and anti-tumor activity (in vivo anti-tumor studies) could be determined by the assay procedures described in WO 95/10516. The disclosure of WO 95/10516 is incorporated herein by reference thereto.

COS Cell = COS Cell IC50 (Cell-Based Assay); settings: COS cells
Description: as §1

Human tumor cells = assay: Soft Agar Assay (anchorage-independent growth); type: cell-based; settings: colony growth in soft agar
Description: Anchorage-independent growth is a characteristic of tumorigenic cell lines. Human tumor cells are suspended in growth medium containing 0.3% agarose and an indicated concentration of a farnesyl transferase inhibitor. The solution is overlayed onto growth medium solidified with 0.6% agarose containing the same concentration of farnesyl transferase inhibitor as the top layer. After the top layer is solidified, plates are incubated for 10-16 days at 37° C. under 5% CO2 to allow colony outgrowth. After incubation, the colonies are stained by overlaying the agar with a solution of MTT (3-[4,5-dimethyl-thiazol-2-yl]-2,5-diphenyltetrazolium bromide, Thiazolyl blue) (1 mg/mL in PBS). Colonies can be counted and the IC50's can be determined.

Row | Structure (SMILES) | IC50 [1] [nM] | melting point | IC50 (COS Cell) [nM] | IC50 (Human tumor cells) [nM]
1 | CONC(=O)Cc1ccc(CC(=O)N2CCC([C@H]3c4ncc(Br)cc4CCc4cc(Cl)cc(Br)c43)CC2)cc1 [Example 19] | 4.7 | 116 to 123 °C | 90 | 
2 | O=C(Cc1ccc(CC(=O)N2CCC([C@H]3c4ncc(Br)cc4CCc4cc(Cl)cc(Br)c43)CC2)cc1)NCCO [Example 20] | > 140 | 94 to 100 °C |  | 
3 | O=C(O)C[C@H]1CC[C@@H](C(=O)N2CCC([C@H]3c4ncc(Br)cc4CCc4cc(Cl)cc(Br)c43)CC2)CC1 [Example 35] | 3.3 |  | 70 | 
4 | O=C(NO)c1ccccc1CC(=O)N1CCC([C@H]2c3ncc(Br)cc3CCc3cc(Cl)cc(Br)c32)CC1 [Example 27] | 53 | 156 to 157 °C |  | 
5 | O=C(O)Cc1cccc(CC(=O)N2CCC([C@H]3c4ncc(Br)cc4CCc4cc(Cl)cc(Br)c43)CC2)c1 [Example 4] | 4.1 | 205 °C (dec.) | 400 | 
6 | O=C(NCc1ccncc1)c1ccccc1CC(=O)N1CCC([C@H]2c3ncc(Br)cc3CCc3cc(Cl)cc(Br)c32)CC1 [Example 24] | 47 | 134 to 138 °C |  | 
7 | COC(=O)CNC(=O)Cc1ccc(CC(=O)N2CCC([C@H]3c4ncc(Br)cc4CCc4cc(Cl)cc(Br)c43)CC2)cc1 [Example 18] | 5.3 | 94 to 97 °C | 450 | 
8 | O=C(O)C=C1CCC(=CC(=O)N2CCC([C@H]3c4ncc(Br)cc4CCc4cc(Cl)cc(Br)c43)CC2)CC1 [Example 14] | 5.2 | 161 to 169 °C | 55 | 
9 | O=C(O)Cc1ccc(CC(=O)N2CCC([C@H]3c4ncc(Br)cc4CCc4cc(Cl)cc(Br)c43)CC2)cc1 [Example 3] | 1.6 | 186 to 189 °C | 380 | 
10 | O=C(O)C[C@H]1CC[C@H](C(=O)N2CCC([C@H]3c4ncc(Br)cc4CCc4cc(Cl)cc(Br)c43)CC2)CC1 [Example 36] | 10.2 |  | 500 | 
11 | NC(=O)Cc1ccc(CC(=O)N2CCC([C@H]3c4ncc(Br)cc4CCc4cc(Cl)cc(Br)c43)CC2)cc1 [Example 15] | 3.6 |  | 100 | > 500
12 | O=C(O)CC1CCC(CC(=O)N2CCC([C@H]3c4ncc(Br)cc4CCc4cc(Cl)cc(Br)c43)CC2)CC1 (stereo partly drawn) [Example 13] | 1.5 |  | 10 | > 500
13 | O=C(Cc1ccccc1C(=O)N1CCOCC1)N1CCC([C@H]2c3ncc(Br)cc3CCc3cc(Cl)cc(Br)c32)CC1 [Example 26] | 56 | 136 to 138 °C |  | 
14 | O=C(O)C1CCC(CC(=O)N2CCC([C@H]3c4ncc(Br)cc4CCc4cc(Cl)cc(Br)c43)CC2)CC1 (stereo partly drawn) [Example 12] | 1.9 |  | 10 | > 500
15 | O=C(Cc1ccccc1C(=O)N1CCC([C@H]2c3ncc(Br)cc3CCc3cc(Cl)cc(Br)c32)CC1)N1CCOCC1 [Example 11] | 250 | 127 to 128 °C |  | 
16 | COC(=O)CNC(=O)Cc1cccc(CC(=O)N2CCC([C@H]3c4ncc(Br)cc4CCc4cc(Cl)cc(Br)c43)CC2)c1 [Example 17] | 9.5 | 86 to 90 °C | 410 | 

Further lines, with some results ahead:

Row | IC50 [1] [nM] | melting point | Structure (SMILES) | IC50 (COS Cell) [nM] | IC50 (Human tumor cells) [nM]
17 | 91 | 98 to 102 °C | CC(C)(C)OC(=O)C[C@H]1CC[C@H](C(=O)N2CCC([C@H]3c4ncc(Br)cc4CCc4cc(Cl)cc(Br)c43)CC2)CC1 [Example 10] |  | 
18 | 46 | 138 to 140 °C | O=C(O)[C@H]1CC[C@H](C(=O)N2CCC([C@H]3c4ncc(Br)cc4CCc4cc(Cl)cc(Br)c43)CC2)CC1 [Example 5] |  | 
19 | 4.6 | 145 to 152 °C | NC(=O)C1CCC(CC(=O)N2CCC(C3c4ncc(Br)cc4CCc4cc(Cl)cc(Br)c43)CC2)CC1 (stereo not drawn) [Example 23] | 18 | 
20 | 8.6 | 81 to 86 °C | COC(=O)Cc1ccc(CC(=O)N2CCC([C@H]3c4ncc(Br)cc4CCc4cc(Cl)cc(Br)c43)CC2)cc1 [Example 34] | 180 | 
21 | 19 | 86 to 90 °C | CC(C)(C)OC(=O)CC1CCC(CC(=O)N2CCC([C@H]3c4ncc(Br)cc4CCc4cc(Cl)cc(Br)c43)CC2)CC1 (stereo partly drawn) [Example 6] |  | 
22 | 110 | 113 to 117 °C | CC(C)(C)OC(=O)C=C1CCC(=CC(=O)N2CCC([C@H]3c4ncc(Br)cc4CCc4cc(Cl)cc(Br)c43)CC2)CC1 [Example 7] |  | 
23 | 34 |  | COC(=O)[C@@H]1C[C@H]1C(=O)N1CCC([C@H]2c3ncc(Br)cc3CCc3cc(Cl)cc(Br)c32)CC1 [Example 29 (compound 54.1)] |  | 
24 | 6.2 |  | NC(=O)[C@H]1C[C@@H]1C(=O)N1CCC([C@H]2c3ncc(Br)cc3CCc3cc(Cl)cc(Br)c32)CC1 [30 (compound 55.0)] | 50 | 
25 | 44 | 98 to 102 °C | CC(C)(C)OC(=O)C[C@H]1CC[C@@H](C(=O)N2CCC([C@H]3c4ncc(Br)cc4CCc4cc(Cl)cc(Br)c43)CC2)CC1 [Example 9] |  | 
26 | 6.3 | 119 to 125 °C | NC(=O)Cc1cccc(CC(=O)N2CCC([C@H]3c4ncc(Br)cc4CCc4cc(Cl)cc(Br)c43)CC2)c1 [Example 16] | 375 | 
27 | 36 | 116 to 118 °C | COC(=O)CNC(=O)c1ccccc1CC(=O)N1CCC([C@H]2c3ncc(Br)cc3CCc3cc(Cl)cc(Br)c32)CC1 [Example 25] |  | 
28 | 66 | 229 °C (dec.) | O=C(O)c1ccccc1CC(=O)N1CCC([C@H]2c3ncc(Br)cc3CCc3cc(Cl)cc(Br)c32)CC1 [Example 1] |  | 
29 | 25 |  | COC(=O)[C@H]1C[C@@H]1C(=O)N1CCC([C@H]2c3ncc(Br)cc3CCc3cc(Cl)cc(Br)c32)CC1 [30 (compound 55.1)] |  | 
30 | 6.3 | 103 to 110 °C | NC(=O)CC1CCC(CC(=O)N2CCC(C3c4ncc(Br)cc4CCc4cc(Cl)cc(Br)c43)CC2)CC1 (stereo not drawn) [Example 22] | 22 | 
31 | 8.3 |  | NC(=O)[C@@H]1C[C@H]1C(=O)N1CCC([C@H]2c3ncc(Br)cc3CCc3cc(Cl)cc(Br)c32)CC1 [Example 29 (compound 54.0)] |  | 
